According to PMC7310436, “JP3, an antiangiogenic peptide, inhibits growth and metastasis of gastric cancer through TRIM25/SP1/MMP2 axis” (Journal of Experimental & Clinical Cancer Research : CR, 2020):
Where a SMILES comes first, the peptide text is derived from it. [ ]: non-standard residue; d: D form. pY = N[C@@H](Cc1ccc(OP(=O)(O)O)cc1)C(=O)O; pT = C[C@@H](OP(=O)(O)O)[C@H](N)C(=O)O

Columns and labels:
BGC823 cells [1] = test: Xenograft screening of MMP2-targeted peptides by intraperitoneal injection; assay type: in vivo, BALB/c nude mice
Description: (§1) For establishing xenograft mouse models, 5 × 10^6/200 μL of BGC823 cells were subcutaneously injected into flank of BALB/c nude mice. When the tumor volume (V = 0.5 × length × width^2) reached about 100 mm^3, the mice were randomly divided into different groups and received the indicated treatments. General situations and activities of each mouse were daily recorded. Tumor sizes were recorded by caliper every 3 days for calculating tumor volumes. Body weight of the experimental mouse was also recorded every 3 days. The endpoint of the experimental therapy was determined until enough growth (up to 2000 mm^3) of the xenograft tumor or intolerable side effects.
(§2) In the present study, the strategy to screen JWA protein based functional tumor inhibitory peptides included four steps, (1) all the candidate fragments were selected from non-transmembrane regions and contain amino acid can be phosphorylated in its sequence; (2) the intra-tumor injection in xenograft GC tumor in mouse model was used for first round screening for all candidate fragments; (3) the identified functional peptides in (2) were modified with HWGF as MMP2 target and used for secondary screening by intraperitoneal injection in xenograft GC mouse model; (4) the functional peptides selected in (3) were further used to inhibit metastasis of GC (Fig. 1a).

BGC823 cells [2] = test: Xenograft screening of candidate peptides by intra-tumor injection; assay type: in vivo, BALB/c nude mice; conditions: BGC823 subcutaneous xenograft; intra-tumor injection 10 mg/kg/d for 5 days/week x 2 weeks
Description: as §1, §2

TRIM25 [3] = test: Western blotting in BGC823 cells; assay type: cell-based, human; conditions: 0, 1, 10, 50 μM for 24 h
Description: (§3) Western blotting analysis was carried out as previously described. The antibodies against MMP2, Tubulin, Ub, HA-tag, Flag-tag and Ki-67 were purchased from Cell Signal Technology (Danvers MA, USA); anti-CD31 and PCNA were provided by Epitomics (MA, USA); anti-GAPDH and Actin were purchased from Beyotime (Jiangsu, China); anti-TRIM25 and SP1 were provided by Proteintech (Wuhan, China); anti-His was purchased from MBL (Japan). All above antibodies were used at a dilution of 1:1000.

TRIM25 [4] = test: Ubiquitination assay; assay type: cell-based, human; conditions: BGC823 cells; His-Ub 48 h, 50 μM 24 h, MG132 10 μM 6 h; IP anti-TRIM25
Description: (§4) GC cells were treated with or without JP3, followed by incubation with MG132 (10 μM) for another 6 h. Cells were harvested, prepared for protein samples and divided for Western blotting and co-IP assay, respectively. For co-IP assay, the protein (500 μg) was cultured with anti-SP1 or anti-TRIM25 antibody (dilution: 1:250) at 4 °C for 1 h, and Protein A/G Plus-Agarose overnight. After three cycles of washing in pre-cold IP buffer and centrifugation at 4 °C, 1000×g for 5 min, the immunoprecipitate was collected by centrifugation, eluted and examined by Western blotting.

SP1 [5] = test: Ubiquitination assay; assay type: cell-based, human
Description: as §4

HUVECs [6] = test: HUVECs tube formation assay, direct treatment of HUVECs; assay type: cell-based, human; conditions: HUVECs treated at similar dose for 24 h
SP1 [7] = test: Western blotting in GC cells; assay type: cell-based; conditions: SGC7901 and BGC823 (Non(p)-JP3: BGC823, 24 h)
Description: as §3

BGC823 cells [8] = test: Metastatic GC mouse model (tail vein injection, bioluminescence imaging, HE staining of lung); assay type: in vivo, BALB/c nude mice
Description: For establishment of metastatic GC mouse model, five-week-old BALB/c nude mice were randomly divided into two groups, 3 mice each. BGC823 cells were suspended in PBS. The mice were injected intravenously with 2 × 10^6 cells in 0.15 mL of PBS through tail vein. On next day, the mice were treated by intra-peritoneal (ip) injection of Ctrl-H-P and JP3 and followed by luciferase substrate (GM-040611, Genomeditech, China); and photographed using the IVIS Spectrum in vivo imaging system (PerkinElmer, USA) on day 50th to observe the cancer cell metastasis.

[9] = Toxicity and body weight in treated mice; assay type: in vivo, BALB/c nude mice; conditions: xenograft and metastatic mice models
CD31 [10] = test: Western blotting of xenograft tumor tissues; assay type: in vivo, BALB/c nude mice; conditions: nude mice bearing GC
Description: as §3

PCNA = test: Western blotting of xenograft tumor tissues; assay type: in vivo, BALB/c nude mice; conditions: nude mice bearing GC
Description: as §3

TRIM25 [11] = test: Western blotting of xenograft tumor tissues; assay type: in vivo, BALB/c nude mice; conditions: compared to the Ctrl-P-H treatment
Description: as §3

SP1 [12] = test: Western blotting of xenograft tumor tissues; assay type: in vivo, BALB/c nude mice; conditions: compared to the Ctrl-P-H treatment
Description: as §3

MMP2 [13] = test: Western blotting of xenograft tumor tissues; assay type: in vivo, BALB/c nude mice; conditions: nude mice bearing GC
Description: as §3

JWA = test: Western blotting in GC cells; assay type: cell-based, human; conditions: SGC7901 and BGC823
Description: as §3

MMP2 [14] = test: Western blotting in GC cells; assay type: cell-based, human; conditions: SGC7901 and BGC823 (Non(p)-JP3: BGC823, 24 h)
Description: as §3

CD31 [15] = test: IHC of lung sections, metastatic GC mouse model; assay type: in vivo, BALB/c nude mice
Description: (§5) Fig. 1 MMP2-targeted polypeptide JP3 inhibits growth and metastasis of GC in vivo. a The screening flowchart of JWA candidate peptides in nude mice. b The name and amino acid sequence of six fragments. c The ratios of mouse xenograft tumor weight/mice weight from screening model by intratumor injection. d The inhibition rates of tumor growth from screening model by intraperitoneal injection. e The expression levels of MMP2, CD31 and PCNA protein were analyzed using Western blotting in tumor tissues from nude mice bearing GC. f-g Sections of tumors were stained with anti-Ki-67 and anti-CD31 antibodies by IHC (scale bars = 50 μm). h-i The luciferase signals in the mice were detected and photographed using an IVIS in vivo image system. j-k The representative HE staining sections of lung (scale bars = 2 mm). l-m Sections of lung were stained with anti-CD31 antibodies by IHC (scale bars = 50 μm). The data are presented as the means ± SEM, ns: no significance, *P < 0.05, **P < 0.01
For establishment of metastatic GC mouse model, five-week-old BALB/c nude mice were randomly divided into two groups, 3 mice each. BGC823 cells were suspended in PBS. The mice were injected intravenously with 2 × 10^6 cells in 0.15 mL of PBS through tail vein. […]

BGC823 cells [16] = test: Colony formation assay; assay type: cell-based, human; conditions: different concentrations of JP3
TRIM25 [17] = test: Protein stability, CHX chase and Western blotting; assay type: cell-based, human; conditions: BGC823 cells; 50 μM for 12 h, then CHX
Description: as §3

SP1 [18] = test: Protein stability, CHX chase and Western blotting; assay type: cell-based, human; conditions: BGC823 cells; 50 μM for 24 h, then CHX
Description: as §3

TRIM25 mRNA = test: qRT-PCR; assay type: cell-based, human
Description: (§6) According to the manufacturer’s protocol, total RNAs were isolated using TRIzol (Invitrogen, CA, USA) and reversely transcribed into cDNAs using reverse transcription kit and the SYBR Green Master Mix kit (Takara, Otsu, Japan). The complementary DNA (cDNA) was amplified with the following primers: 5′-[…]-3′ (forward) and 5′-[…]-3′ (reverse) for TRIM25; 5′-[…]-3′ (forward) and 5′-[…]-3′ (reverse) for GAPDH; 5′-[…]’-3′ (forward) and 5′-[…]-3′ (reverse) for SP1. Quantitative RT-PCR was carried out an ABI Prism 7900 Sequence detection system (Applied Biosystems, Canada). Relative levels were normalized to that of GAPDH.

SP1 mRNA = test: qRT-PCR; assay type: cell-based, human; conditions: BGC823 and SGC7901 cells
Description: as §6

HUVECs [19] = test: HUVECs tube formation assay with conditional medium of peptide-treated GC cells; assay type: cell-based, human; conditions: 4 h on Matrigel
Description: After 6 hours of peptide treatment of GC cells, the medium was replaced and cultured in a 60 mm petri dish containing 1% serum for 24 h. On the next day, 2 mL of conditional medium was collected. For tube formation assay, a 96-well plate was coated with 50 μL of Matrigel™ (BD Biosciences) and kept at 37 °C for 2 h. Then, 1.2 × 10^4 HUVECs suspended in 100 μL of conditional medium were applied to each well of the precoated 96-well plate. After incubation at 37 °C for 4 h, tubular structures formed in the Matrigel were captured in five randomly selected fields per sample under a microscope.

[20] = tested on: CD31 (microvessel density (MVD)); test: IHC of xenograft tumor sections; assay type: in vivo, BALB/c nude mice
Description: as §5

Ki-67 = test: IHC of xenograft tumor sections; assay type: in vivo, BALB/c nude mice
Description: as §5

HWGF [histidine-tryptophan-glycine-phenylalanine, reference compound]
biological function to inhibit gastric cancer (BGC823 cells [1]; HWGF targeting MMP2 alone): no biological function to inhibit gastric cancer

CSCC[C@H](NC(=O)[C@H](CCCNC(=N)N)NC(C)=O)C(=O)N[C@@H](CCCCN)C(=O)N[C@@H](CCCCN)C(=O)N[C@@H](CCCNC(=N)N)C(=O)N[C@@H](Cc1ccc(OP(=O)(O)O)cc1)C(=O)N1CCC[C@H]1C(=O)N[C@H](C(=O)N[C@H](C(=O)N[C@@H](Cc1ccccc1)C(=O)N[C@H](C(=O)N[C@@H](CCSC)C(=O)N[C@H](C(=O)N[C@H](C(N)=O)C(C)C)C(C)C)C(C)C)[C@@H](C)O)[C@@H](C)O [PJP3–1] (Ac-RMKKR[pY]PTTFVMVV-NH2)
tumor inhibitory effect (ratio of mouse xenograft tumor weight/mice weight) (BGC823 cells [2]): better effects than the others

CC[C@H](C)[C@H](NC(C)=O)C(=O)NCC(=O)N[C@@H](CC(C)C)C(=O)N[C@@H](CCCCN)C(=O)N[C@@H](CCCNC(=N)N)C(=O)N[C@H](C(=O)N1CCC[C@H]1C(=O)N[C@@H](CCSC)C(=O)NCC(=O)N[C@H](C(=O)N[C@H](C(N)=O)C(C)C)[C@@H](C)CC)[C@@H](C)OP(=O)(O)O [PJP5] (Ac-IGLKR[pT]PMGIV-NH2)
tumor inhibitory effect (ratio of mouse xenograft tumor weight/mice weight) (BGC823 cells [2]): better effects than the others

CSCC[C@H](NC(=O)[C@H](CCCNC(=N)N)NC(C)=O)C(=O)N[C@@H](CCCCN)C(=O)N[C@@H](CCCCN)C(=O)N[C@@H](CCCNC(=N)N)C(=O)N[C@@H](Cc1ccc(O)cc1)C(=O)N1CCC[C@H]1C(=O)N[C@H](C(=O)N[C@H](C(=O)N[C@@H](Cc1ccccc1)C(=O)N[C@H](C(=O)N[C@@H](CCSC)C(=O)N[C@H](C(=O)N[C@H](C(N)=O)C(C)C)C(C)C)C(C)C)[C@@H](C)OP(=O)(O)O)[C@@H](C)O [PJP3–3] (Ac-RMKKRYPT[pT]FVMVV-NH2)
tumor inhibitory effect (ratio of mouse xenograft tumor weight/mice weight) (BGC823 cells [2]): better effects than the others

CSCC[C@H](NC(=O)[C@H](CCCNC(=N)N)NC(C)=O)C(=O)N[C@@H](CCCCN)C(=O)N[C@@H](CCCCN)C(=O)N[C@@H](CCCNC(=N)N)C(=O)N[C@@H](Cc1ccc(O)cc1)C(=O)N1CCC[C@H]1C(=O)N[C@H](C(=O)N[C@H](C(=O)N[C@@H](Cc1ccccc1)C(=O)N[C@H](C(=O)N[C@@H](CCSC)C(=O)N[C@H](C(=O)N[C@H](C(=O)NCC(=O)NCC(=O)NCC(=O)NCC(=O)N[C@@H](Cc1c[nH]cn1)C(=O)N[C@@H](Cc1c[nH]c2ccccc12)C(=O)NCC(=O)N[C@@H](Cc1ccccc1)C(N)=O)C(C)C)C(C)C)C(C)C)[C@@H](C)OP(=O)(O)O)[C@@H](C)O [JP3] (Ac-RMKKRYPT[pT]FVMVVGGGGHWGF-NH2)
TRIM25 protein level (TRIM25 [3]): dose-dependent increase
ubiquitinated TRIM25 (TRIM25 [4]): decreased
relative band intensity printed with the blot (IP: SP1, IB: ubiquitin) (SP1 [5]; BGC823, His-ub, JP3 50 μM, with MG132 10 μM 6 h, control = 1.00, MG132 alone 1.50): 2.17
ubiquitinated SP1 (SP1 [5]; BGC823 and SGC7901 cells, His-ub 48 h, 50 μM for 24 h, IP anti-SP1): increased
tubular formation of HUVECs, direct treatment (HUVECs [6]): no obvious effects
expression of SP1 in GC cells (SP1 [7]): down-regulated
relative area of metastatic tumor in lung (BGC823 cells [8]; HE staining): significantly decreased
fluorescence intensity of GC cell metastatic foci (BGC823 cells [8]; bioluminescence imaging on day 50, ip injection, compared with Ctrl-P-H group, 3 mice each): obviously reduced
side effects [9]: undetectable side effects
expression of CD31 in GC tumor tissues (CD31 [10]): down-regulated
expression of PCNA in GC tumor tissues (PCNA): down-regulated
expression of TRIM25 in GC tumor tissues (TRIM25 [11]): up-regulated
expression of SP1 in GC tumor tissues (SP1 [12]): down-regulated
expression of MMP2 in GC tumor tissues (MMP2 [13]): down-regulated
expression of JWA in GC cells (JWA): no obvious effect
expression of MMP2 in GC cells (MMP2 [14]): down-regulated
expression of CD31 in GC metastatic tissues (CD31 [15]): significantly suppressed
effect on GC cell proliferation in vitro (colony numbers) (BGC823 cells [16]): no obvious effects
tumor inhibitory rate (inhibition of xenograft tumor growth) (BGC823 cells [1]; BGC823 subcutaneous xenograft, intraperitoneal injection 50 mg/kg/d for 12 days): best tumor inhibitory rate among candidates
degradation (stability) of TRIM25 (TRIM25 [17]): slowed down the degradation
degradation (stability) of SP1 (SP1 [18]): accelerated degradation
mRNA level of TRIM25 (TRIM25 mRNA): not affected
mRNA level of SP1 (SP1 mRNA): not affected
tubular formation of HUVECs (HUVECs [19]; supernatent of peptide-treated BGC823 cells): dose-dependently inhibited
tubular formation of HUVECs (HUVECs [19]; supernatent of peptide-treated SGC7901 cells): dose-dependently inhibited
expression of CD31 (microvessel density (MVD)) in GC tumor tissues [20]: suppressed
expression of Ki-67 in GC tumor tissues (Ki-67): suppressed
